Source: patent publication US9200071B2, “Methods of treating cancer using Notch1 and Notch3 antagonists” (Genentech, Inc., priority 2009, dated 2015)

Assays:
Type in all cases: cell-based, human
[1] = tested on: activated Notch1 in HPB-ALL cells; test: Immunoblot of nuclear fractions with anti-Notch1 Val1744; details: FIG. 13 upper panel
Text: (§1) This new anti-Notch3 ICD antibody was then used to investigate the activation status of Notch3 in the three classes of T-ALL. […] 3T3 cells expressing Notch1 (3T3-N1) and MDA-MB-468 (MB468) cells were used as controls. Consistent with the growth inhibition studies described in the previous figures, TALL-1 expresses high levels of activated Notch3 but not activated Notch1 (compare TALL-1 lanes in lower and upper panels, respectively). Furthermore, production of activated Notch3 in TALL-1 could be blocked by DAPT but not anti-NRR1 (lower panel). Moreover, as expected, HPB-ALL cells express high levels of activated Notch1, which can be blocked by DAPT or anti-NRR1 antibody (see HPB-ALL lanes in upper panel). As to the controls, activated Notch1 is seen as a lighter, up-shifted band in the 3T3-N1 cells treated with Jagged (+jag) (upper panel).

[2] = tested on: HPB-ALL cell line; test: Cell cycle status by propidium iodide FACS (growth sensitivity); details: eight days, DAPT 5 μM, anti-NRR1 5 μg/ml
Protocol: (§2) FIGS. 3-5 presents the classification of three representative human T-ALL cell lines. Those cell lines include the P-12 Ichikawa cell line, the HPB-ALL cell line, and the TALL-1 cell line. The cells were grown for eight days in control conditions (DMSO alone (the vehicle for DAPT) or anti-gD (an isotype control antibody)); in the presence of the gamma-secretase inhibitor, DAPT (5 μM); or in the presence of anti-NRR1 (5 μg/ml). The cells were fixed, stained with propidium iodide and prepared for FACS to analyze the cell cycle status, according to standard procedures. […] HPB-ALL cells are sensitive to both DAPT and anti-NRR1 (FIG. 4A-4D), with DAPT- and anti-NRR1-treated cells showing about 78% and 76% of cells in G0/G1, respectively, compared to about 33-34% of the control cells. TALL-1 cells are sensitive to DAPT but resistant to anti-NRR1 (FIG. 5A-5D), with about 87% of DAPT-treated cells in G0/G1, compared to about 55% of anti-NRR1-treated cells and about 53-54% of control cells. It is noted that Notch1 is not mutated in TALL-1 cells. […] (Data not shown and FIG. 10.)
(§3) As described above, two of the three classes of T-ALL, represented by HPB-ALL and TALL-1, are both sensitive to GSI but differ in that the former is sensitive to anti-NRR1, whereas the latter is not. […] To address this question, CCRF-CEM cells, HPB-ALL cells, and TALL-1 cells were treated as described for FIGS. 3-5, except that a Notch3-specific antagonist was also included at 10 μg/ml in a subset of the treatments to test whether growth depended on Notch3 signaling. The Notch3-specific antagonist used in these studies was mouse anti-human Notch3 monoclonal antibody 256A-4, the isolation and characterization of which are discussed in U.S. Patent Application Publication No. US 2008/0226621 A1. For convenience, 256A-4 is referred to herein as “anti-NRR3,” and is also referred to as “α-N3” in the figures.

[3] = tested on: TALL-1 cell line; test: as above; details: eight days, DAPT 5 μM, anti-NRR1 5 μg/ml; for percentage of cells in G0/G1: control cells about 53-54%
Protocol: as §2, §3

[4] = tested on: CCRF-CEM cells; test: as above; details: eight days; DAPT 5 μM, anti-NRR1 5 μg/ml, anti-NRR3 10 μg/ml; FIG. 10A-10F
Protocol: as §2, §3

[5] = tested on: HPB-ALL cell line; test: Apoptosis by Annexin V / 7-AAD FACS; details: approximately one week; DAPT 5 μM, anti-NRR1 5 μg/ml; FIG. 7
Protocol: (§4) The P-12 Ichikawa cell line, the HPB-ALL cell line, and the TALL-1 cell line were treated as described above for FIG. 6. The cells were analyzed by FACS, with staining for 7-AAD (cell death marker) on the x-axis of FIG. 7, and staining for Annexin V (marker for apoptosis) on the y-axis of FIG. 7. […] In contrast, P-12 Ichikawa cells are resistant to both treatments, whereas TALL-1 cells are sensitive to DAPT but not to anti-NRR1.

[6] = tested on: TALL-1 cell line; test: Apoptosis by Annexin V / 7-AAD FACS; details: approximately one week; DAPT 5 μM, anti-NRR1 5 μg/ml; FIG. 7
Protocol: as §4

[7] = tested on: P-12 Ichikawa cell line; test: Apoptosis by Annexin V / 7-AAD FACS; details: approximately one week; DAPT 5 μM, anti-NRR1 5 μg/ml; FIG. 7
Protocol: as §4

[8] = tested on: P-12 Ichikawa cell line; test: Cell cycle status by propidium iodide FACS (growth sensitivity); details: eight days; DAPT 5 μM, anti-NRR1 5 μg/ml; FIG. 3A-3D
Protocol: as §2

[9] = tested on: activated Notch3 in TALL-1; test: Immunoblot of nuclear fractions with anti-Notch3 ICD antibody; details: TALL-1 nuclear fractions; FIG. 13 lower panel
Text: as §1

[10] = tested on: HPB-ALL cell line; test: Cell proliferation assay by Ki-67 staining FACS; details: approximately one week; DAPT 5 μM, anti-NRR1 5 μg/ml; FIG. 8 left panel
Protocol: (§5) The P-12 Ichikawa cell line, the HPB-ALL cell line, and the TALL-1 cell line were treated as described above for FIG. 6. The cells were analyzed by FACS using Ki-67 staining to mark proliferation (left panel). A shift in the FACS peak to the left indicates lower staining for Ki-67 and decreased proliferation, and conversely, a shift in the FACS peak to the right indicates higher staining for Ki-67 and increased proliferation. Based on this proliferation assay, HPB-ALL was sensitive to both DAPT and anti-NRR1, TALL-1 was sensitive to DAPT but not anti-NRR1, and P-12 Ichikawa cells were resistant to both. […] Low cell counts (i.e., low numbers of Annexin V/7-AAD double negative (non-apoptotic) cells) indicate increased apoptosis, which in turn correlate with decreased proliferation in the left hand panel.

[11] = tested on: TALL-1 cell line; test: Cell proliferation assay by Ki-67 staining FACS; details: approximately one week; DAPT 5 μM, anti-NRR1 5 μg/ml; FIG. 8 left panel
Protocol: as §5

[12] = tested on: P-12 Ichikawa cell line; test: Cell proliferation assay by Ki-67 staining FACS; details: approximately one week; DAPT 5 μM, anti-NRR1 5 μg/ml; FIG. 8 left panel
Protocol: as §5

[13] = tested on: HPB-ALL cell line; test: Cell diameter measurement (Vi-Cell cell counter); details: approximately one week; DAPT 5 μM, anti-NRR1 5 μg/ml; FIG. 6
Protocol: (§6) The P-12 Ichikawa cell line, the HPB-ALL cell line, and the TALL-1 cell line were grown for approximately one week in control conditions (DMSO alone (the vehicle for DAPT) or anti-gD (an isotype control antibody)); in the presence of the gamma-secretase inhibitor, DAPT (5 μM); or in the presence of anti-NRR1 (5 μg/ml). Cell diameter was measured using a cell counter (Vi-Cell, Beckman Coulter). Consistent with the growth inhibition studies, the P-12 Ichikawa line is resistant to both DAPT and anti-NRR1, as indicated by relatively consistent cell diameter among treated and control cells.

[14] = tested on: TALL-1 cell line; test: Cell diameter measurement (Vi-Cell cell counter); details: approximately one week; DAPT 5 μM, anti-NRR1 5 μg/ml; FIG. 6
Protocol: as §6

[15] = tested on: P-12 Ichikawa cell line; test: Cell diameter measurement (Vi-Cell cell counter); details: approximately one week; DAPT 5 μM, anti-NRR1 5 μg/ml; FIG. 6
Protocol: as §6

[16] = tested on: activated Notch3 in MDA-MB-468 cells; test: Immunoblot of MDA-MB-468 cells treated with anti-Notch3 agonist antibody; details: in the absence of DAPT, FIG. 13 lower panel
Text: as §1

[17] = anti-NRR3 10 μg/ml, FIG. 11A-11F

In the case of `C[C@H](NC(=O)Cc1cc(F)cc(F)c1)C(=O)N[C@H](C(=O)OC(C)(C)C)c1ccccc1` [DAPT, N—[N-(3,5-difluorophenacetyl)-L-alanyl]-S-phenylglycine t-butyl ester], the “activated Notch1 levels (nuclear fraction immunoblot)” value [1] is reported as “blocked”, the “growth sensitivity (cell cycle status)” value [2, 17] is reported as “sensitive” and the “percentage of cells in G0/G1” value [2, 17] is reported as “about 67%”. The “growth sensitivity (cell cycle status)” value ([2]; FIG. 4A-4D) was “sensitive”, the “percentage of cells in G0/G1” value ([2]; FIG. 4A-4D, control cells about 33-34%) was “about 78%” and the “percentage of cells in G0/G1” value ([3]; anti-NRR3 10 μg/ml, FIG. 9A-9F) was ~83%. For the same molecule, the “growth sensitivity (cell cycle status)” value ([3]; FIG. 5A-5D) was “sensitive”, the “percentage of cells in G0/G1” value ([3]; FIG. 5A-5D) was “about 87%” and the “growth sensitivity (cell cycle status)” value [4] was “resistant”. The “apoptotic cell death (Annexin V/7-AAD double positive population)” value (“apoptotic cell death” for short) [5] was “increases apoptotic cell death”, the “apoptotic cell death” value [6] was “sensitive” and the “apoptotic cell death” value [7] was “resistant”. For the same molecule, the “growth sensitivity (cell cycle status)” value [8] was “resistant”, the “production of activated Notch3 (nuclear fraction immunoblot)” value [9] was “blocked” and the “proliferation (Ki-67 staining)” value [10] was “sensitive”. The “proliferation (Ki-67 staining)” value [11] was “sensitive”, the “proliferation (Ki-67 staining)” value [12] was “resistant” and the “cell diameter (cell size) versus control” value [13] was “significantly smaller size”. The “cell diameter (cell size) versus control” value [14] was “significantly smaller size” and the “cell diameter (cell size) versus control” value [15] was “resistant”.

B1: A13: anti-Notch3 agonist antibody described in US 2008/0118520 A1 as 256A-13 (antibody, V domains shown)
VH: SQVQLQQSGAELAKPGTSVKMACKASGYTFTTHWMNWVKQRPGQGLEWIGTINPSNDFTDCNQKFKDKAILTADKSSSTAYMQLSSLTSEDSAIYYCASGLTARAWFAYWGQGTLVTVSAA
VL: RATISCRASQSVTTSNYSYMHWFQQKPGQPPKLLIKYASNLDSGVPARFSGSGSGTDFTLNIHPVEEEDTATFYCQHSWEIPYTFGGGTNLEIKRADAAPTV
For B1, the “activated Notch3 band after agonist antibody treatment” value [16] was “faint but detectable band”.
